From patent US9725490B2, “ERAP1-derived peptide and use thereof” (TOKUSHIMA UNIVERSITY, priority 2011, dated 2017)

Experiments:
Type in all cases: cell-based, human
[1] = tested on: MCF-10A cells; assay: Cell proliferation assay, normal epithelial MCF-10A; conditions: 24 hours
Description: FIG. 6-1 is a diagram illustrating that ERAP1-peptide treatment suppresses ERα-dependent cell proliferation of breast cancer cell lines. (A) and (B) show the results of MTT assay by which the inhibition effect of the ERAP1-peptide in the E2-dependent cell proliferation was evaluated. MCF-7 cells were treated with the ERAP1-peptide (A, B) the ERAP1-scramble peptide (B) or the ERAP1-mutant peptide (B).
Using Cell-Counting Kit-8 (CCK-8, Dojindo, Kumamoto, Japan), the cell proliferation assay was performed. The cells were harvested, and plated in 2×10^4 cells/well on a 48-well plate, and maintained at 37° C. in a humidified incubator. At the indicated time points, the cells were added with a CCK-8 solution diluted to 1:10, and incubated for 1 hour. Then, the absorbance at 450 nm was measured and the number of living cells in each well was calculated.

[2] = tested on: Akt, MAPK and ERα phosphorylation; assay: Phosphorylation of Akt, MAPK and ERα in tamoxifen-resistant MCF-7 cells
Description: FIG. 14 is a diagram illustrating the suppression effect of the ERAP1-peptide on tamoxifen-resistant MCF-7 cells. […] The tamoxifen-resistant MCF-7 cells were treated with the ERAP1-peptide in each concentration (0, 5 and 10 μM). Then, immediately, the cells were stimulated with 10 nM E2 for 24 hours.
MCF-7 cells and tamoxifen-resistant MCF-7 cells were seeded in 1×10^5/well in DMEM/F12 culture medium containing phenol red on a 24-well plate and stood in a CO2 incubator for 24 hours. Then, the culture medium was exchanged with DMEM/F12 culture medium containing 10% FBS, 1% penicillin/streptomycin and 1 μM tamoxifen, and not containing phenol red, and the cells were further pre-cultured for 24 hours. The supernatant was removed, and then 180 μl of […] ERAP1-peptide was added (final concentration: 10 μM), and subsequently 20 μl of 100 nM E2 was added (final concentration: 10 nM), and the mixture was reacted for 24 hours. The reaction solution was removed, and then 100 μl of SDS-sample buffer was added and the cells were lysed. The cells were subjected to boiling treatment at 95° C. for 5 minutes, and subjected to polyacrylic amide electrophoresis. Phosphorylations of Akt and MAPK were detected with anti-phosphorylation Akt (Ser473) (587F11) and anti-phosphorylation p44/42 MAP Kinase (Thr202/Tyr204) antibodies, and phosphorylation of ERα was detected with anti-phosphorylation ERα (Ser104/106), anti-phosphorylation ERα (Ser118), anti-phosphorylation ERα (Ser167), anti-phosphorylation ERα (Ser305) and anti-phosphorylation ERα (Tyr537) antibodies.

[3] = tested on: PHB2/REA (Ser39) phosphorylation; assay: Ser39 phosphorylation of PHB2/REA, MCF-7; conditions: 10 μM
Description: FIG. 26-1 is a diagram illustrating the results of evaluations for the phosphorylation in nuclear-translocated Ser39 of PHB2/REA. […] MCF-7 cells were treated with 10 μM ERAP1-peptide. Then, immediately, the cells were stimulated with 10 nM E2 for 24 hours. The cells were fractionated into cytoplasm and nuclear fractions by specific gravity centrifugation. Then, each fraction was immunoprecipitated with anti-PHB2/REA antibody. Then, the cells were lysed. Then, the immunoprecipitated protein and the cell lysate were subjected to immunoblotting analysis with the antibodies shown in the figure. […] Then, immediately, the cells were temporally stimulated with 10 nM E2. Each cell lysate was subjected to immunoblotting analysis with an anti-PHB2/REA antibody and an anti-phosphorylation PHB2/REA (S39) antibody. […] MCF-7 cells were treated with the ERAP1-peptide and λ-phosphatase (400 U) in the presence of 10 nM E2 for 24 hours. After the immobilization, the cells were subjected to immunofluorescent staring. […]
MCF-7 cells were seeded in an 8-well chamber (Laboratory-Tek II Chamber Slide System, Nalgen Nunc International, Naperville, Ill., USA) in 5×10^4 cells/well, and cultured under estrogen-free condition for 24 hours. […] The fluorescence image was obtained under Olympus IX71 microscope (Tokyo, Japan).

[4] = tested on: SK-BR-3 cells; assay: Proliferation of ERα negative SK-BR-3 cells; conditions: 24 hours and 48 hours
Description: FIG. 40 is a diagram illustrating the results of MTT assay by which proliferation suppression effect of the ERAP1-peptide in ERα negative breast cancer cell lines, SK-BR-3 cells was evaluated. SK-BR-3 cells were treated with the ERAP1-peptide (Peptide) or the ERAP1-scramble peptide (scrPeptide) for 24 hours or for 48 hours.
Cell proliferation assay was performed using Cell-Counting Kit-8 (CCK-8, Dojindo, Kumaamoto, Japan). The cells were harvested, and plated in 2×10^4 cells/well on a 48-well plate, and maintained in a humidified incubator (37° C.). 10 fold-diluted CCK-8 solution was added at indicated time points and the cells were incubated for 1 hour. Then, the absorbance at 450 nm was measured and the number of living cells was calculated.

CSCC[C@H](NC(=O)[C@H](CCC(N)=O)NC(=O)[C@H](CCCNC(=N)N)NC(=O)[C@H](CCCNC(=N)N)NC(=O)[C@H](CCCNC(=N)N)NC(=O)[C@H](CCCNC(=N)N)NC(=O)[C@H](CCCNC(=N)N)NC(=O)[C@H](CCCNC(=N)N)NC(=O)[C@H](CCCNC(=N)N)NC(=O)[C@H](CCCNC(=N)N)NC(=O)[C@H](CCCNC(=N)N)NC(=O)[C@H](CCCNC(=N)N)NC(=O)[C@@H](N)CCCNC(=N)N)C(=O)N[C@@H](CC(C)C)C(=O)N[C@@H](CO)C(=O)N[C@@H](CC(=O)O)C(=O)N[C@@H](CC(C)C)C(=O)N[C@H](C(=O)N[C@@H](CC(C)C)C(=O)N[C@@H](CCC(N)=O)C(=O)N[C@@H](CC(C)C)C(=O)N[C@@H](CCCNC(=N)N)C(=O)N[C@@H](CCC(N)=O)C(=O)N[C@@H](CCCNC(=N)N)C(=O)O)[C@@H](C)O [ERAP1-peptide]
cell proliferation [1]: had no influence on the cell proliferation at all
phosphorylation of ERα ([2]; Tam-R MCF-7, 10 μM peptide): all phosphorylation of ERα was also decreased
phosphorylations of Akt and MAPK ([2]; Tam-R MCF-7, tamoxifen alone or tamoxifen and E2): phosphorylations of Akt and MAPK were remarkably decreased
E2-dependent Ser phosphorylation of PHB2/REA, successive change ([3]; 10 nM E2): recognized continuously from 1 hour to 24 hours
phosphorylation of Ser39 of nuclear-translocated PHB2/REA ([3]; 10 nM E2 24 hours): recognized for the phosphorylation of Ser39
cell proliferation [4]: had suppression effect on the cell proliferation in dose-dependent manner both at 24 hours and 48 hours
